According to the supplement of paper PMC10307832:

What was measured:
Assay in all cases: relative viability (nuclei count vs DMSO), 5 days (fraction); higher = more cells survive
[1] = test system: HCC-44
In short: (§1)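 Lung cancer cell lines, seeded in 1536-well plates, were treated the following day by pin tool with a single drug or with five library-drug doses (not always all listed) in √10 steps on top of a fixed anchor-drug dose. Cells were fixed and nuclei stained in one step after 5 days, and nuclei were counted. Relative viability is the nuclei count for treated wells divided by that for vehicle wells, reported as medians of duplicate plates.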

[2] = test system: HCC-827
In short: as §1

[3] = test system: NCI-H650
In short: as §1

[4] = test system: EKVX
In short: as §1

[5] = test system: SW 1573
In short: as §1

[6] = test system: NCI-H1975
In short: as §1

[7] = test system: NCI-H1666
In short: as §1

[8] = test system: H3255
In short: as §1

[9] = test system: NCI-H2085
In short: as §1

[10] = test system: COR-L 105
In short: as §1

[11] = test system: LU99A
In short: as §1

[12] = test system: BEN
In short: as §1

[13] = test system: NCI-H2170
In short: as §1

[14] = test system: 201T
In short: as §1

[15] = test system: NCI-H1437
In short: as §1

[16] = test system: PC-3 [JPC-3]
In short: as §1

[17] = test system: NCI-H2087
In short: as §1

[18] = test system: LCLC-97TM1
In short: as §1

[19] = test system: EPLC-272H
In short: as §1

[20] = test system: NCI-H647
In short: as §1

[21] = test system: LOU-NH91
In short: as §1

## CCN(CC)CCCCNc1ncc2cc(-c3cc(OC)cc(OC)c3)c(NC(=O)NC(C)(C)C)nc2n1 + C[C@@H](Oc1cc(-c2cnn(C3CCNCC3)c2)cnc1N)c1c(Cl)ccc(F)c1Cl [Crizotinib] (partner 1 µM)
[1]; first compound 0.01 µM
  relative viability: 0.775
[1]; first compound 0.03162 µM
  relative viability: 0.855
[1]; first compound 0.1 µM
  relative viability: 0.853
[1]; first compound 0.3162 µM
  relative viability: 0.971
[1]; first compound 1 µM
  relative viability: 0.946
[2]; first compound 0.01 µM
  relative viability: 0.979
[2]; first compound 0.03162 µM
  relative viability: 0.958
[2]; first compound 0.1 µM
  relative viability: 0.968
[2]; first compound 0.3162 µM
  relative viability: 0.966
[2]; first compound 1 µM
  relative viability: 0.937
[3]; first compound 0.01 µM
  relative viability: 0.694
[3]; first compound 0.03162 µM
  relative viability: 0.618
[3]; first compound 0.1 µM
  relative viability: 0.863
[3]; first compound 0.3162 µM
  relative viability: 0.743
[3]; first compound 1 µM
  relative viability: 0.606
[4]; first compound 0.01 µM
  relative viability: 1.21
[4]; first compound 0.03162 µM
  relative viability: 0.924
[4]; first compound 0.1 µM
  relative viability: 1.04
[4]; first compound 0.3162 µM
  relative viability: 0.841
[4]; first compound 1 µM
  relative viability: 0.664
[5]; first compound 0.01 µM
  relative viability: 0.69
[5]; first compound 0.03162 µM
  relative viability: 0.813
[5]; first compound 0.1 µM
  relative viability: 1.05
[5]; first compound 0.3162 µM
  relative viability: 0.774
[5]; first compound 1 µM
  relative viability: 0.722
[6]; first compound 0.01 µM
  relative viability: 1.35
[6]; first compound 0.03162 µM
  relative viability: 1.02
[6]; first compound 0.1 µM
  relative viability: 1.05
[6]; first compound 0.3162 µM
  relative viability: 0.94
[6]; first compound 1 µM
  relative viability: 0.82
[7]; first compound 0.01 µM
  relative viability: 1.17
[7]; first compound 0.03162 µM
  relative viability: 0.985
[7]; first compound 0.1 µM
  relative viability: 0.895
[7]; first compound 0.3162 µM
  relative viability: 1.02
[7]; first compound 1 µM
  relative viability: 1.09
[8]; first compound 0.01 µM
  relative viability: 0.936
[8]; first compound 0.03162 µM
  relative viability: 0.885
[8]; first compound 0.1 µM
  relative viability: 1.14
[8]; first compound 0.3162 µM
  relative viability: 1.01
[8]; first compound 1 µM
  relative viability: 0.843
[9]; first compound 0.01 µM
  relative viability: 0.983
[9]; first compound 0.03162 µM
  relative viability: 0.917
[9]; first compound 0.1 µM
  relative viability: 0.943
[9]; first compound 0.3162 µM
  relative viability: 0.895
[9]; first compound 1 µM
  relative viability: 0.817
[10]; first compound 0.01 µM
  relative viability: 0.795
[10]; first compound 0.03162 µM
  relative viability: 0.796
[10]; first compound 0.1 µM
  relative viability: 0.887
[10]; first compound 0.3162 µM
  relative viability: 0.777
[10]; first compound 1 µM
  relative viability: 0.658
[11]; first compound 0.01 µM
  relative viability: 0.547
[11]; first compound 0.03162 µM
  relative viability: 0.63
[11]; first compound 0.1 µM
  relative viability: 0.616
[11]; first compound 0.3162 µM
  relative viability: 0.583
[11]; first compound 1 µM
  relative viability: 0.484
[12]; first compound 0.01 µM
  relative viability: 1.05
[12]; first compound 0.03162 µM
  relative viability: 0.85
[12]; first compound 0.1 µM
  relative viability: 0.867
[12]; first compound 0.3162 µM
  relative viability: 0.835
[12]; first compound 1 µM
  relative viability: 0.699
[13]; first compound 0.01 µM
  relative viability: 1.35
[13]; first compound 0.03162 µM
  relative viability: 1.34
[13]; first compound 0.1 µM
  relative viability: 1.32
[13]; first compound 0.3162 µM
  relative viability: 1.27
[13]; first compound 1 µM
  relative viability: 1.16
[14]; first compound 0.01 µM
  relative viability: 1.06
[14]; first compound 0.03162 µM
  relative viability: 1.09
[14]; first compound 0.1 µM
  relative viability: 1.06
[14]; first compound 0.3162 µM
  relative viability: 1.05
[14]; first compound 1 µM
  relative viability: 1.03
[15]; first compound 0.01 µM
  relative viability: 1.12
[15]; first compound 0.03162 µM
  relative viability: 0.993
[15]; first compound 0.1 µM
  relative viability: 0.987
[15]; first compound 0.3162 µM
  relative viability: 1.16
[15]; first compound 1 µM
  relative viability: 0.756
[16]; first compound 0.01 µM
  relative viability: 1
[16]; first compound 0.03162 µM
  relative viability: 1.01
[16]; first compound 0.1 µM
  relative viability: 1.04
[16]; first compound 0.3162 µM
  relative viability: 1.04
[16]; first compound 1 µM
  relative viability: 0.889
[17]; first compound 0.01 µM
  relative viability: 0.925
[17]; first compound 0.03162 µM
  relative viability: 0.967
[17]; first compound 0.1 µM
  relative viability: 1.01
[17]; first compound 0.3162 µM
  relative viability: 0.958
[17]; first compound 1 µM
  relative viability: 1.06
[18]; first compound 0.03162 µM
  relative viability: 0.45
[18]; first compound 0.1 µM
  relative viability: 0.373
[18]; first compound 0.3162 µM
  relative viability: 0.396
[18]; first compound 1 µM
  relative viability: 0.326
[19]; first compound 0.01 µM
  relative viability: 1.23
[19]; first compound 0.1 µM
  relative viability: 1.13
[19]; first compound 0.3162 µM
  relative viability: 1.04
[19]; first compound 1 µM
  relative viability: 0.917
[20]; first compound 0.01 µM
  relative viability: 1.06
[20]; first compound 0.03162 µM
  relative viability: 1.08
[20]; first compound 0.1 µM
  relative viability: 1.53
[20]; first compound 0.3162 µM
  relative viability: 1.3
[20]; first compound 1 µM
  relative viability: 0.774
[21]; first compound 0.01 µM
  relative viability: 0.733
[21]; first compound 0.03162 µM
  relative viability: 0.723
[21]; first compound 0.1 µM
  relative viability: 0.776
[21]; first compound 0.3162 µM
  relative viability: 0.747
[21]; first compound 1 µM
  relative viability: 0.725
